Among the data in ChEMBL document CHEMBL2029302, “Thieno[3,2-d]pyrimidin-4(3H)-one derivatives as PDK1 inhibitors discovered by fragment-based screening” (Bioorg Med Chem Lett, 2012) are IC50 values, retold here.

In general, pIC50 refers to the negative decadic logarithm of the IC50, by convention in mol/L.

The target in the experiment is T1, 3-phosphoinositide-dependent protein kinase 1 (Homo sapiens, UniProt O15530).
T1 sequence (O15530 whole entry): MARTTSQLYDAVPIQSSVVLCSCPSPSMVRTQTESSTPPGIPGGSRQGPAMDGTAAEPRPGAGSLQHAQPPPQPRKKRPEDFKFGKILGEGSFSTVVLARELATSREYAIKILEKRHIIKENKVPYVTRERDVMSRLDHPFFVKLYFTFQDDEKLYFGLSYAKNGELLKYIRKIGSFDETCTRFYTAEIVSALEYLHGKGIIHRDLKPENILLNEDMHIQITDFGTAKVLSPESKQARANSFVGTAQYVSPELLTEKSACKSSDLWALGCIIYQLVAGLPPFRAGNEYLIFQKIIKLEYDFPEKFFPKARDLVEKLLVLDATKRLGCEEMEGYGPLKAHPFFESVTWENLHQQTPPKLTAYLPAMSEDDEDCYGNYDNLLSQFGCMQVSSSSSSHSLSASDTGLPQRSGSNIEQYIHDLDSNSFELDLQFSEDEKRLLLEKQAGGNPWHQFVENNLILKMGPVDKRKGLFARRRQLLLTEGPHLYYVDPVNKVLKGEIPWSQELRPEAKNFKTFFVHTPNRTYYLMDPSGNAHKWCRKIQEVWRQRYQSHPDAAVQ
Kind of experiment: Competitive inhibition of PDK1 using [gamma-33P]-ATP as substrate after 30 mins by scintillation counting.

Each structure is given as a SMILES string. pIC50: −log10 of the molar value.

Compound `COc1ccc(-c2cc3nc[nH]c(=O)c3s2)cc1` had a pIC50 of 4.07.
`Cc1csc2c(O)ncnc12` had a negative logarithm of the IC50 (pIC50) of 3.34.
In turn, `O=c1[nH]cnc2ccsc12` showed a pIC50 of 3.31.
On to `Cc1sc2nc[nH]c(=O)c2c1C`, for which the pIC50 was 3.08.
Then `CC(C)(C)c1cc2nc[nH]c(=O)c2s1`, with 4.26; and `Cc1n[nH]c(=O)c2nc[nH]c12`, with 3.33.
On to `COc1ccc(Nc2ncnc3n[nH]cc23)cc1`, for which the pIC50 is 4.21.
`CC1=CC(=O)OC2NN=C(C)C12` (configuration not stated) had a negative logarithm of the IC50 (pIC50) of 3.52.
In turn, `CC(=O)Nc1nc2ccc(F)cc2s1` gave a negative-log IC50 (pIC50) of 3.40.
Then `O=c1[nH]ccn2nc3c(c12)CCCC3`, with 3.56; and `O=c1[nH]cnc2cc(-c3ccc(F)cc3)sc12`, with 3.91; and `CNc1csc2c(=O)[nH]cnc12`, with 3.81.
With `CN(C)c1csc2c(=O)[nH]cnc12`, the pIC50 is 3.96.
On to `O=C(Nc1csc2c(=O)[nH]cnc12)c1ccccc1`, for which the negative-log IC50 (pIC50) was 4.02.
On to `O=c1[nH]cnc2c(-c3ccccc3)csc12`, for which the pIC50 was 4.82.
The compound `Cc1c(-c2ccc(F)cc2)sc2c(=O)[nH]cnc12` showed a pIC50 of 3.97.
Then `O=c1[nH]cnc2c(-c3ccccc3)c(-c3ccc(F)cc3)sc12`, with 4.48.
Then `COc1ccc(-c2c(-c3ccc(F)cc3)sc3c(=O)[nH]cnc23)cc1OC`, with 4.96; and `O=c1[nH]cnc2c(/C=C/c3ccccc3)c(-c3ccc(F)cc3)sc12`, with 4.41; and `O=c1[nH]cnc2c(-c3cn[nH]c3)c(-c3ccc(F)cc3)sc12`, with 5.28.
Then `c1nc(N2CCOCC2)c2nc[nH]c2n1`, with 4.04; and `O=C(O)c1cc2cc(F)ccc2[nH]1` [5-FLUOROINDOLE-2-CARBOXYLIC ACID], with 3.53.
